Experiments:
CD4 cells = assay: 32-week three-arm trial in HIV-infected individuals: CD4 cell counts; format: in vivo, human; settings: for Change in CD4 cell counts from baseline: OT analysis
Excerpt: (§1) All participants were antiretroviral drug naive.
(§2) Laboratory abnormalities were graded.

[1] = 32-week three-arm HIV trial: body weight; format: in vivo, human
Excerpt: as §1, §2

Substance: zidovudine (AZT), lamividine (3TC), and efavirenz (EFV) [AZT/3TC/EFV]
- Change in CD4 cell counts from baseline (CD4 cells; 12 weeks of treatment): +122 cells/mm^3
- Change in CD4 cell counts from baseline (CD4 cells; 20 weeks): +108 cells/mm^3
- Change in CD4 cell counts from baseline (CD4 cells; 32 weeks): +102 cells/mm^3
- CD4 counts After (CD4 cells; after therapy): 463
- CD4 counts Before (CD4 cells; before therapy (baseline)): 361
- Body weight After ([1]; after therapy): 65.6
- Mean values for baseline body weight ([1]; baseline, mean ± SD): 64.2 ± 8.9 kg
- Body weight Before ([1]; before therapy): 64.2
- Mean weight values at the end of study ([1]; end of study): 65.6 ± 7.3 kg
- Average weight gain ([1]; week 32): 1.4 kg
